Test results as given in paper PMC12591163, “Controllable Generation of Pathogen‐Specific Antimicrobial Peptides Through Knowledge‐Aware Prompt Diffusion Model” (Advanced Science, 2025).
Ends that are not written are not given here. Peptide text beside a SMILES is read from it.

Assays:
Type in all cases: cell-based
E. coli ATCC 25922 = conditions: for antimicrobial activity against E. coli (in words): activity threshold defined as MIC ⩽ 128 µg mL^−1; for MIC against E. coli: ATCC 25922
Experimental: (§1) 2.3Details of the wet-lab evaluation […]
(§2) Pathogens used for minimum inhibitory concentration (MIC) measurements included E. coli ATCC 25922 and S. aureus
(§3) ATCC 25923. Both pathogens were streaked on Luria–Bertani (LB) agar and incubated at 37°C overnight. Individual colonies
(§4) were then selected from the agar plates and transferred to Mueller–Hinton broth (MHB) (Hopebio, China) for further cultivation.
(§5) The cultures were shaken at 160 rpm at 37°C overnight. Once the turbidity of the bacterial suspensions reached between 0.4
(§6) and 0.6 McFarland (MCF), the suspensions were diluted 20-fold with MHB. For the preparation of antimicrobial peptide
(§7) solutions, chemically synthesized peptides were dissolved in either ultrapure water (Biosharp, China) or dimethyl sulfoxide
(§8) (DMSO) (Biosharp, China) to achieve a stock concentration of […]. This stock solution was then further diluted with
(§9) MHB to obtain the concentration gradient of 2 to 512 µg/mL for testing. Subsequently, 200 µL of each peptide dilution was
(§10) pipetted into 96-well plates, followed by the addition of 10 µL of the diluted bacterial suspension to each well. The plates were
(§11) incubated at 37°C for 14-20 hours, and MIC values were determined as the lowest peptide concentration at which no bacterial
(§12) growth was observed. Antimicrobial activity assays were conducted in 96-well plates with […] experimental groups as follows:
(§13) 1) blank control group, containing 200 µL of MHB without bacterial suspension; 2) bacterial control group, with 200 µL of
(§14) MHB and 10 µL of bacterial suspension without peptide; 3) peptide treatment groups, consisting of 200 µL of MHB containing
(§15) varying peptide concentration gradient of 2 to 512 µg/mL along with 10 µL of bacterial suspension. All experiments were
(§16) conducted in triplicate. The positive (proper growth of bacteria) and negative (sterility) controls were included.
(§17) The Cell Counting Kit-8 (CCK-8) assay was employed to evaluate the cytotoxicity of peptides against human lung epithelial
(§18) Beas-2B cells. The cells were seeded at a density of 5× 10^3 cells per 100 µL in 96-well plates and cultured overnight at 37°C
(§19) with 5% CO2. Subsequently, the cells were treated with 100 µL of F-12K medium (Procell, China) containing the peptide
(§20) concentration gradient of 4 to 512 µg/mL and incubated for 24 hours. After incubation, 10 µL of CCK-8 solution (Abbkine,
(§21) China) was added to each well, and the cells were incubated for an additional 4 hours at 37°C. Optical density (OD) at 450 nm
(§22) was measured using an automated microplate reader (BioTek, USA). Each treatment was performed in six duplicate wells.
(§23) Cell viability was calculated as the percentage relative to the control, using the formula: Cell viability (%) = [(OD[peptide] -
(§24) OD[blank]) / (OD[control] - OD[blank])] × 100%.
(§25) 3.1More landscape for peptide datasets
(§26) For the diversity of GO terms, the biological process category encompasses 3,430 terms (accounting for 47% of the total terms)
(§27) and 245,683 peptides (representing 22% of the total peptides); the cellular component category includes 819 terms (11%) and
(§28) 469,675 peptides (43%); the molecular function category covers 3,017 terms (42%) and 389,436 peptides (35%). In the context
(§29) of pathogen diversity (Table 1), the Gram-positive group comprises 24 distinct pathogens (accounting for 43% of the total
(§30) pathogen numbers), and 31,726 peptide terms (representing 49% of the total peptide numbers). The Gram-negative group is
(§31) characterized by 17 pathogens (constituting 30% of the pathogen diversity), and 28,206 peptide terms (making up 44% of the […]

S. aureus ATCC 25923 = test system: S. aureus ATCC 25923
Experimental: as §1, §2, §3, §4, §5, §6, §7, §8, §9, §10, §11, §12, §13, §14, §15, §16, §17, §18, §19, §20, §21, §22, §23, §24, §25, §26, §27, §28, §29, §30, §31

[1] = test system: human lung epithelial Beas-2B cells; conditions: 24 h

Compound: CC(C)C[C@H](NC(=O)[C@H](Cc1ccc(O)cc1)NC(=O)CNC(=O)[C@H](CO)NC(=O)[C@H](CC(C)C)NC(=O)[C@H](CCCNC(=N)N)NC(=O)[C@H](CCCNC(=N)N)NC(=O)[C@@H](NC(=O)[C@H](Cc1ccccc1)NC(=O)[C@H](CC(C)C)NC(=O)[C@@H](N)Cc1ccccc1)C(C)C)C(=O)N[C@@H](CC(N)=O)C(=O)N[C@@H](Cc1ccc(O)cc1)C(=O)N[C@H](C(=O)N[C@H](C(=O)N[C@@H](CCCNC(=N)N)C(=O)N[C@@H](CS)C(=O)N[C@@H](CCCNC(=N)N)C(=O)N[C@@H](CCCNC(=N)N)C(=O)N[C@@H](Cc1ccccc1)C(=O)N[C@@H](CCCCN)C(=O)N[C@@H](Cc1ccccc1)C(=O)N[C@@H](CS)C(=O)N[C@@H](C)C(=O)O)C(C)C)[C@@H](C)O [Pep6] (H-FLFVRRLSGYLNYTVRCRRFKFCA-OH; N-terminus and C-terminus assumed)
- antimicrobial activity against E. coli (in words) (E. coli ATCC 25922): demonstrated the activity

Compound: KRTSQQRLQRLITVGRFRLW [Pep7]
- MIC against E. coli (E. coli ATCC 25922): ≥ 512 µg/mL

Compound: MARRKPLGKKLRLRAAFK [Pep8]
- MIC against E. coli (E. coli ATCC 25922): ≥ 512 µg/mL

Compound: AKRYYWRWFKHWYRFAHG [Pep10]
- MIC against S. aureus (S. aureus ATCC 25923; ATCC 25923): 16 µg/mL
- antimicrobial activity against S. aureus (in words) (S. aureus ATCC 25923; activity threshold defined as MIC ⩽ 128 µg mL^−1): exhibit antimicrobial activity
- antimicrobial activity against E. coli (in words) (E. coli ATCC 25922): exhibit antimicrobial activity
- peptide concentration causing 50% cytotoxicity (CC50) [1]: ≥ 256 µg/mL
